Some test systems named below: 786-0 renal; A549 NSCLC; BT-549 breast; CCRF-CEM leukemia; HCT-15 colon; LOX IMVI melanoma; M14 melanoma; MCF7 breast; MDA-MB-231 breast; NCI-H23 lung; NCI-H522 lung; OVCAR-3 ovarian; OVCAR-5 ovarian; PC-3 prostate; RXF 393 renal; SK-MEL-5 melanoma; SK-OV-3 ovarian; SR leukemia; UACC-257 melanoma.
What all share (assay): NCI tumour cell line growth inhibition, 48 h

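Assay format: 96-well plates, 48-hour exposure. TGI marks complete inhibition of growth.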 Where a SMILES comes first, the peptide text is derived from it. The star is where a group is joined. Boc = CC(C)(C)OC(=O)*; OBn = c1ccc(CO*)cc1

As to `Cc1n[nH]c(=O)n1/N=C\CC/C=N\n1c(C)n[nH]c1=O`, the TGI with 786-0 renal, in the experiment with A549 NSCLC, with BT-549 breast, with CCRF-CEM leukemia, in the experiment with HCT-15 colon and in the experiment on LOX IMVI melanoma was over 100 µM in each case. For the same compound, the TGI in the experiment on M14 melanoma, in the experiment with MCF7 breast, in the experiment with MDA-MB-231 breast, in the experiment on NCI-H23 lung, in the experiment on NCI-H522 lung and in the experiment with OVCAR-3 ovarian was over 100 µM each time. The TGI with OVCAR-5 ovarian, in the experiment on PC-3 prostate, with RXF 393 renal, with SK-MEL-5 melanoma, in the experiment with SK-OV-3 ovarian and with SR leukemia was over 100 µM throughout. Moreover, the TGI in the experiment on UACC-257 melanoma was over 100 µM.
On to `COC1=CC(=O)c2c(O)c3c(c(O)c2C1=O)C=C(C)OC3O` (stereo unspecified), for which the TGI with 786-0 renal was found to be 10.9 µM; in the experiment with A549 NSCLC, 4.35 µM; in the experiment with BT-549 breast, 3.5 µM; with CCRF-CEM leukemia, 16.1 µM; with HCT-15 colon it was 2.07 µM; in the experiment with LOX IMVI melanoma, 1.9 µM. Also, the TGI with M14 melanoma came out at 0.845 µM; in the experiment with MCF7 breast it was 1.57 µM; in the experiment with MDA-MB-231 breast it was 5.09 µM; in the experiment on NCI-H23 lung it was 2.25 µM; in the experiment with NCI-H522 lung, 3.95 µM; in the experiment with OVCAR-3 ovarian, 6.33 µM. In addition, the TGI in the experiment with OVCAR-5 ovarian amounted to 5.73 µM; in the experiment on PC-3 prostate, 16.3 µM; in the experiment on RXF 393 renal, 3.92 µM; in the experiment on SK-MEL-5 melanoma, 0.66 µM; in the experiment on SK-OV-3 ovarian, 23.7 µM; with SR leukemia it was 5.46 µM. This compound also yielded a TGI in the experiment with UACC-257 melanoma of 0.754 µM.
As to `O=C1/C(=C/c2c(Cl)[nH]c3ccccc23)c2ccccc2N1c1ccccc1`, the TGI in the experiment on 786-0 renal is 25.4 µM; in the experiment with A549 NSCLC, over 100 µM; in the experiment with BT-549 breast, 21.2 µM; with CCRF-CEM leukemia it was 31.9 µM; in the experiment on HCT-15 colon, 15 µM; with LOX IMVI melanoma, 15.6 µM. Also, the TGI in the experiment with M14 melanoma was 13 µM; in the experiment with MCF7 breast, 30.9 µM; with MDA-MB-231 breast it was 29.6 µM; in the experiment with NCI-H23 lung, 19.3 µM; with NCI-H522 lung, 10.7 µM; with OVCAR-3 ovarian it was 6.26 µM. For the same compound, the TGI came to 81.9 µM in the experiment with OVCAR-5 ovarian; 19.4 µM in the experiment with PC-3 prostate; 31.1 µM in the experiment with RXF 393 renal; 14.2 µM in the experiment on SK-OV-3 ovarian; 19.6 µM in the experiment on SR leukemia; 23.8 µM in the experiment on UACC-257 melanoma.
Regarding `c1ccc2cc(CNCCOCCOCCNCc3ccc4ccccc4c3)ccc2c1`, the TGI in the experiment with 786-0 renal amounted to 2.97 µM; with A549 NSCLC it was 3.46 µM; in the experiment on BT-549 breast, 3.3 µM; in the experiment with CCRF-CEM leukemia it was 4.46 µM; in the experiment with HCT-15 colon, 3.46 µM; in the experiment with LOX IMVI melanoma, 3.06 µM. Further, the TGI worked out at 3.89 µM in the experiment on M14 melanoma; 3.41 µM with MCF7 breast; 3.11 µM in the experiment on MDA-MB-231 breast; 4 µM in the experiment with NCI-H23 lung; 3.44 µM with NCI-H522 lung; 3.7 µM with OVCAR-3 ovarian. Besides, the TGI amounted to 4 µM in the experiment with OVCAR-5 ovarian; 5.3 µM with PC-3 prostate; 3.52 µM with RXF 393 renal; 5.66 µM in the experiment on SK-MEL-5 melanoma; 8.62 µM with SK-OV-3 ovarian; 5.45 µM in the experiment on SR leukemia. Also, in the experiment with UACC-257 melanoma, the TGI is 2.96 µM.
For the compound `CC(NC(=O)C(Cc1ccccc1)NC(=O)C(Cc1ccccc1)NC(=O)OC(C)(C)C)C(=O)OCc1ccccc1` (stereo not drawn) (Boc-Phe-Phe-Ala-OBn; configuration not given here), the TGI in the experiment with 786-0 renal, with A549 NSCLC, in the experiment on BT-549 breast, in the experiment with CCRF-CEM leukemia, with LOX IMVI melanoma and in the experiment with M14 melanoma was over 100 µM throughout. Also, the TGI in the experiment with MCF7 breast, with MDA-MB-231 breast, in the experiment on NCI-H23 lung, in the experiment with NCI-H522 lung, in the experiment with OVCAR-3 ovarian and in the experiment on OVCAR-5 ovarian was over 100 µM each time. Besides, the TGI in the experiment on PC-3 prostate, with RXF 393 renal, in the experiment with SK-MEL-5 melanoma, with SK-OV-3 ovarian, in the experiment with SR leukemia and in the experiment on UACC-257 melanoma was over 100 µM throughout.
As for `N#Cc1[nH]c(=O)n(-c2cccc3ccccc23)c1N`, the TGI in the experiment with 786-0 renal, in the experiment with A549 NSCLC, in the experiment on BT-549 breast, with CCRF-CEM leukemia, in the experiment with HCT-15 colon and in the experiment with LOX IMVI melanoma was over 10 µM in each case. Also, the TGI in the experiment with M14 melanoma, with MCF7 breast, in the experiment on MDA-MB-231 breast, in the experiment with NCI-H23 lung, in the experiment with NCI-H522 lung and in the experiment with OVCAR-3 ovarian was over 10 µM each time. In addition, the TGI in the experiment with OVCAR-5 ovarian, in the experiment with PC-3 prostate, with RXF 393 renal, in the experiment on SK-MEL-5 melanoma, in the experiment on SK-OV-3 ovarian and with SR leukemia was over 10 µM each time. The compound also displayed a TGI in the experiment with UACC-257 melanoma of over 10 µM.
`O=c1[nH]c(-c2ccccc2)nc2c1sc1nc3ccccc3n12`: the TGI with 786-0 renal, with A549 NSCLC, in the experiment on BT-549 breast, with CCRF-CEM leukemia, in the experiment with HCT-15 colon and in the experiment on LOX IMVI melanoma was over 100 µM throughout. The TGI with M14 melanoma, in the experiment on MCF7 breast, in the experiment on MDA-MB-231 breast, in the experiment with NCI-H23 lung, in the experiment on NCI-H522 lung and in the experiment on OVCAR-3 ovarian was over 100 µM in each case. For the same compound, the TGI in the experiment on OVCAR-5 ovarian, with PC-3 prostate, in the experiment with RXF 393 renal, in the experiment with SK-MEL-5 melanoma, in the experiment with SK-OV-3 ovarian and with SR leukemia was over 100 µM in each case. Moreover, in the experiment with UACC-257 melanoma, the TGI was over 100 µM.

(Values after PubChem BioAssay (NCI).)
